Data set [1] deals with 3D7-strain P. falciparum asexual parasites. The experiment in a line: P. falciparum asexual growth inhibition assay (Pf GIA). The settings on record: dose response confirmation; read-out: Pf asexual growth inhibition assays IC50. It is filed as cell-based, Plasmodium falciparum. Put shortly:
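0.25% parasitemia, 2% Hct, RPMI/HEPES/hypoxanthine/5% Albumax; compound dose response, 72 h, 37°C, 5% CO2, 5% O2, 90% N2. Freeze-thaw, then LDH assay, A650. % inhibition vs chloroquine (50 μM)/DMSO, mean of 3 independent runs.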

In data set [2] the test system is HepG2 cells. Kind of data set: HepG2 cytotoxicity assay. The settings on record: for Unified cytotox: HepG2 values of the three screens unified; for IC50: read-out: HepG2 cytotoxicity assay IC50, dose response confirmation. Put shortly:
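Here viability after a 48 h compound incubation (37°C, humidified 5% CO2) is measured by fluorescence and expressed as percent inhibition, with doxorubicin at 50 μM and DMSO as the bounding controls.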

Data set [3] concerns P. berghei ookinete development. The settings on record: for Is compound selective in assay? Pb ODA active?: 1: YES, 0: NO; for % inhibition, Replicate A / % inhibition, Replicate B: primary screen at 1 μM.
Data set [4] concerns P. falciparum female gametocytes. Further details: method as in Miguel-Blanco et al 2017. The settings on record: ref Miguel-Blanco et al 2017, read-out: Pf FGAA IC50, cited from earlier work.
Data set [5] concerns HepG2 cells. The settings on record: ref Miguel-Blanco et al 2017, cited from earlier work.
The test system of data set [6] is P. falciparum female gametocytes. The experiment in a line: P. falciparum female gametogenesis assay (Pf FGAA). The settings on record: 1: YES; 0: NO.
[7] abbreviates: read-out: Pb ODA IC50, this manuscript.
Where [8] appears, read: read-out: Pb Ookinete development assay IC50, dose response confirmation.
[9] abbreviates: HepG2 value reported with Pf FGAA screen.

Broadly, the IC50 is the point on the concentration scale where inhibition reaches its midpoint.

Molecules are shown by their SMILES. Read-outs that look alike come from different tables or passages of the source.

For the molecule `Cc1ccc(-n2c(Sc3ncnc4sccc34)nnc2N2CCCC2)cc1` [TCMDC-125247], in data set [1], the IC50 is 0.275 µM. For the same molecule, in the data set with HepG2 cells [2], the “HepG2 cytoxicity (Pb ODA, this manuscript)” value is 74.13 µM; the Unified cytotox is reported as 81.63 µM; the IC50 worked out at 74.1 µM. In data set [3], the “Is compound selective in assay? Pb ODA active?” value is reported as 1 (1: YES); the “% inhibition, Replicate A” value stood at 123.83%; the “% inhibition, Replicate B” value came to 128.92%. Also, in data set [3] (setting [7]), the IC50 was 0.22 µM. Further, the IC50 in data set [3] (setting [8]) was determined as 0.222 µM. Also, in data set [4], the IC50 was 0.49 µM. Further, the “HepG2 cytoxicity (Pf FGAA screen)” value with HepG2 cells [5] (HepG2) was 89.13 µM. Further, in data set [6], the “Is compound selective in assay? Pf FGAA active?” value is reported as 1 (1: YES).
Take `CC(C)(CN)c1nc(-c2ccc(Br)c(O)c2)c(-c2ccncc2)[nH]1.Cl` [TCMDC-140680]: the IC50 in data set [1] was 1.55 µM. In the data set with HepG2 cells [2], the “HepG2 cytoxicity (Pb ODA, this manuscript)” value is recorded as 47.32 µM; the Unified cytotox came out at 46.57 µM; the IC50 amounted to 47.3 µM. In data set [3], the “Is compound selective in assay? Pb ODA active?” value is 1 (1: YES); the “% inhibition, Replicate A” value was 97.33%; the “% inhibition, Replicate B” value is reported as 90.28%. Besides, the IC50 in data set [3] (setting [7]) stood at 1.93 µM. Further, the IC50 in data set [3] (setting [8]) came out at 1.93 µM. Further, in data set [4], the IC50 was 0.84 µM. Further, the “HepG2 cytoxicity (Pf FGAA screen)” value in the data set on HepG2 cells [5] (HepG2) is recorded as 45.82 µM. Further, in data set [6], the “Is compound selective in assay? Pf FGAA active?” value is 1 (1: YES).
Consider `CC(C)(C)CNCC(C)(C)c1nc(-c2ccc(Cl)c(O)c2)c(-c2ccncc2)[nH]1.Cl` [TCMDC-140549], for which, in data set [1], the IC50 stood at 0.817 µM. Besides, in the data set with HepG2 cells [2], the “HepG2 cytoxicity (Pb ODA, this manuscript)” value turned out to be 12.02 µM; the Unified cytotox was 11.83 µM; the IC50 came to 12 µM. In addition, in data set [3], the “Is compound selective in assay? Pb ODA active?” value is reported as 0 (0: NO); the “% inhibition, Replicate A” value is reported as 58.06%; the “% inhibition, Replicate B” value is 49.80%. Moreover, the IC50 in data set [3] (setting [7]) was 1.35 µM. In addition, in data set [3] (setting [8]), the IC50 worked out at 1.35 µM. Also, the IC50 in data set [4] was 1.01 µM. Besides, in the data set with HepG2 cells [5] (HepG2), the “HepG2 cytoxicity (Pf FGAA screen)” value is given as 11.63 µM. Further, the “Is compound selective in assay? Pf FGAA active?” value in data set [6] is listed as 1 (1: YES).
In the case of `Cc1cccc(Nc2nc(N[C@@H]3CCCNC3)nc3cc[nH]c(=O)c23)c1.O=C(O)C(F)(F)F` [TCMDC-134835], in data set [1], the IC50 stood at 0.255 µM. Moreover, in the data set on HepG2 cells [2], the “HepG2 cytoxicity (Pb ODA, this manuscript)” value is on record as 4.57 µM; the Unified cytotox is listed as 3.91 µM; the IC50 stood at 4.57 µM. For the same molecule, in data set [3], the “Is compound selective in assay? Pb ODA active?” value is recorded as 0 (0: NO); the “% inhibition, Replicate A” value came out at 88.28%; the “% inhibition, Replicate B” value is recorded as 77.31%. Also, in data set [3] (setting [7]), the IC50 is 0.89 µM. Also, the IC50 in data set [3] (setting [8]) amounted to 0.889 µM. The IC50 in data set [4] is 1.85 µM. The “HepG2 cytoxicity (Pf FGAA screen)” value in the data set on HepG2 cells [5] (HepG2) is reported as 3.25 µM. The “Is compound selective in assay? Pf FGAA active?” value in data set [6] is 0 (0: NO).
Consider `O=C(Nc1ccc(Cl)cc1)c1cc(Cl)cc2nc(C(F)(F)F)[nH]c12` [TCMDC-141586], for which the IC50 in data set [1] worked out at 1.1 µM. Also, in the data set on HepG2 cells [2], the “HepG2 cytoxicity (Pb ODA, this manuscript)” value turned out to be 2.04 µM; the Unified cytotox is 2.43 µM; the IC50 stood at 2.04 µM. Also, in data set [3], the “Is compound selective in assay? Pb ODA active?” value is 0 (0: NO); the “% inhibition, Replicate A” value stood at 65.74%; the “% inhibition, Replicate B” value was 42.68%. The IC50 in data set [3] (setting [7]) was found to be 4.37 µM. Besides, the 50% inhibitory concentration (IC50) in data set [3] (setting [8]) came to 4.37 µM. In addition, the IC50 in data set [4] is 1.7 µM. For the same molecule, the “HepG2 cytoxicity (Pf FGAA screen)” value with HepG2 cells [5] (HepG2) was 2.82 µM. Moreover, in data set [6], the “Is compound selective in assay? Pf FGAA active?” value is 0 (0: NO).
As for `Cl.NCC1(c2nc(-c3ccc(Cl)c(O)c3)c(-c3ccncc3)[nH]2)CCCCC1` [TCMDC-141154], the IC50 in data set [1] was 1.48 µM; in the data set with HepG2 cells [2], 46.8 µM; in data set [3] (setting [7]) it was 1.01 µM; in data set [3] (setting [8]), 1 µM; in data set [4], 0.21 µM. Also, in the data set on HepG2 cells [2], the “HepG2 cytoxicity (Pb ODA, this manuscript)” value was 46.77 µM. In the data set on HepG2 cells [2], this molecule gave a Unified cytotox of 29.34 µM. Besides, in data set [3], the “Is compound selective in assay? Pb ODA active?” value was 1 (1: YES). Besides, the “% inhibition, Replicate A” value in data set [3] stood at 57.75%. The “% inhibition, Replicate B” value in data set [3] is listed as 53.53%. Besides, the “HepG2 cytoxicity (Pf FGAA screen)” value in the data set on HepG2 cells [5] (HepG2) is reported as 11.90 µM. Also, the “Is compound selective in assay? Pf FGAA active?” value in data set [6] was 1 (1: YES).
As for `Oc1c(C(Nc2nc3ccccc3s2)c2ccccc2)ccc2cccnc12` (centres unmarked) [TCMDC-125565], the IC50 in data set [1] is 2.39 µM; in the data set with HepG2 cells [2], 2.34 µM; in data set [3] (setting [7]), 4 µM; in data set [3] (setting [8]) it was 4 µM; in data set [4], 3.03 µM. In the data set on HepG2 cells [2], the “HepG2 cytoxicity (Pb ODA, this manuscript)” value came out at 2.34 µM. Also, the Unified cytotox in the data set with HepG2 cells [2] is recorded as 2.34 µM. For the same molecule, the “Is compound selective in assay? Pb ODA active?” value in data set [3] is given as 0 (0: NO). Further, the “% inhibition, Replicate A” value in data set [3] was found to be 27.85%. Further, the “% inhibition, Replicate B” value in data set [3] was found to be 50.32%. Besides, the “Is compound selective in assay? Pf FGAA active?” value in data set [6] is listed as 0 (0: NO).
As to `Cl.Clc1ccc(CNCCCCCCCNCc2ccc(Cl)c(Cl)c2)cc1Cl` [TCMDC-138075], in data set [4] (TCAMS library screen), the IC50 was 0.7 µM. Besides, the “HepG2 cytoxicity (Pf FGAA screen)” value in the data set on HepG2 cells [5] (setting [9]) is 4.57 µM. Besides, the “Is compound selective in assay? Pf FGAA active?” value in data set [6] is 0 (0: NO).
Consider `CCOc1cc2ccccc2cc1CNCCCCCCNCc1cc2ccccc2cc1OCC.CS(=O)(=O)O` [TCMDC-137940], for which, in data set [4] (TCAMS library screen), the 50% inhibitory concentration (IC50) is 1.29 µM. Further, in the data set with HepG2 cells [5] (setting [9]), the “HepG2 cytoxicity (Pf FGAA screen)” value was 6.06 µM. Moreover, the “Is compound selective in assay? Pf FGAA active?” value in data set [6] was 0 (0: NO).
On to `CCn1c(-c2nonc2N)nc2c(-c3cccc(NC(=O)Nc4ccc(Cl)cc4)c3)ncc(OCCCN)c21.O=C(O)C(F)(F)F` [TCMDC-136152], for which the IC50 in data set [4] (TCAMS library screen) was 1.7 µM. Besides, the “HepG2 cytoxicity (Pf FGAA screen)” value in the data set with HepG2 cells [5] (setting [9]) is 10.96 µM. For the same molecule, in data set [6], the “Is compound selective in assay? Pf FGAA active?” value is listed as 0 (0: NO).
With `COc1ccccc1CNc1ccnc(N2CC(Oc3ccc(F)cc3)C2)n1` [TCMDC-135118], in data set [4] (TCAMS library screen), the IC50 is 4.07 µM. Further, the “HepG2 cytoxicity (Pf FGAA screen)” value in the data set on HepG2 cells [5] (setting [9]) is reported as 73.68 µM. Also, the “Is compound selective in assay? Pf FGAA active?” value in data set [6] is on record as 1 (1: YES).
In the case of `CCN1CCN(c2ccc(Nc3c4ccccc4nc4ccccc34)cc2)CC1` [TCMDC-124255], the IC50 in data set [4] (TCAMS library screen) was 1 µM. Also, in the data set with HepG2 cells [5] (setting [9]), the “HepG2 cytoxicity (Pf FGAA screen)” value is 4.57 µM. The “Is compound selective in assay? Pf FGAA active?” value in data set [6] is reported as 0 (0: NO).
Consider `COc1cc2nc(Nc3ccc4c(ccn4Cc4ccccc4)c3)nc(Nc3ccc4c(ccn4Cc4ccccc4)c3)c2cc1OC` [TCMDC-138237], for which the half-maximal inhibitory concentration (IC50) in data set [4] (TCAMS library screen) was 1.58 µM. Also, the “HepG2 cytoxicity (Pf FGAA screen)” value in the data set on HepG2 cells [5] (setting [9]) is listed as 14.13 µM. Further, in data set [6], the “Is compound selective in assay? Pf FGAA active?” value is on record as 0 (0: NO).
For the molecule `NCc1ccc(CNCc2ccc(-c3ccc(-c4nc5cc(C(F)(F)F)ccc5[nH]4)s3)cc2)cc1.O=C(O)C(F)(F)F` [TCMDC-132814], the IC50 in data set [4] (TCAMS library screen) is 1.02 µM. The “HepG2 cytoxicity (Pf FGAA screen)” value with HepG2 cells [5] (setting [9]) is 8.32 µM. Also, the “Is compound selective in assay? Pf FGAA active?” value in data set [6] is on record as 0 (0: NO).
For the molecule `Cn1c(Nc2cc(C(C)(C)C)on2)nc2cc(Nc3ccnc(Nc4cccc(S(=O)(=O)N5CCOCC5)c4)n3)ccc21` [TCMDC-134098], the IC50 in data set [4] (TCAMS library screen) was 1.19 µM. Besides, the “HepG2 cytoxicity (Pf FGAA screen)” value with HepG2 cells [5] (setting [9]) is 8.13 µM. Moreover, the “Is compound selective in assay? Pf FGAA active?” value in data set [6] was 0 (0: NO).

The values are drawn from publication PMC6753678, “Fueling Open Innovation for Malaria Transmission-Blocking Drugs: Hundreds of Molecules Targeting Early Parasite Mosquito Stages” (Frontiers in Microbiology, 2019).
